Data taken from patent US6841661B2, “Glycopeptide antibacterial compounds, compositions containing same and methods of using same” (Princeton Univerisity, priority 1999, dated 2005).
Converted amounts (≈) assume the structure as drawn. “And” between values parts separate entries of the source, which are not always exact repeats. Identical values can stand only once. Like-named read-outs stand apart in the source and are kept apart here.

What was measured:
[1] = Pharmacokinetic studies; type: in vivo; conditions: compared with compound 2; stated as and/or
[2] = system: S. aureus MB 2985; assay: MIC by microdilution in Mueller-Hinton broth (in vivo study); type: cell-based; conditions: inoculum 1.4 × 10^5 cfu/mL in cation adjusted MHB
Description: The MIC is determined by microdilution in Mueller-Hinton broth (MHB) according to the National Committee for Clinical Laboratory Standards guidelines after incubation for 24 hours. Enterococci are tested in cation-supplemented Mueller-Hinton broth at 1.4×10^5 cfu/ml. MIC is defined as the lowest concentration of antibiotic, which inhibits visible growth.

[3] = system: E. faecium CL 5053 (VanA); assay: microbe, parasite or virus in culture; type: cell-based; set-up: CL5053 (in vitro testing): unit not given here; conditions: for CL5053 (in vitro testing): Tables 7 and 8, unit not given
In short: (§1)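 Twofold broth microdilution per modified NCCLS M7-A4, 35 °C. Enterococci and VISA/MRSA in BHI (VISA/MRSA precultured in TSB + 10% HS), E. coli in MH II. Inocula ~1-5×10^6 CFU/ml for enterococci, ~3-7×10^5 CFU/ml otherwise. MIC is the lowest concentration with no visible growth, read at 18-20 hr (E. coli) or 22-24 hr.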

[4] = system: E. coli ASP #50 (envA+); assay: In vitro MIC panel assay (NCCLS broth microdilution); type: cell-based; conditions: E. coli ASP #50 (envA+); MH II broth
Source text: (§2) National Committee for Clinical Laboratory Standards (NCCLS) guidelines [Methods for Dilution Antimicrobial Susceptibility Tests for Bacteria that Grow Aerobically-Fourth Edition; Approved Standard (NCCLS Document M7-A4, January 1997)] are used to establish the assay, although variations are made to optimize the published method according to the specific needs of the present investigation.
(§3) The test panel currently includes eight enterococci and 13 staphylococci, which are selected based upon their antibiotic susceptibility profiles. The methicillin-sensitive Staphylococcus aureus (MSSA) strain MB2985 (Smith isolate) is used to assesses the potential for serum protein binding of the compounds. The paired Gram-negative strains ASP #49 (envA-) and ASP #50 (envA+) (M. Salvatore/N. Lee) are included to judge membrane effects. Table 3 presents a detailed description of the strains included in the panel, including some of the sources of the strains of bacteria.
(§4) The glycopeptide antibiotic teicoplanin is included whenever possible.
(§5) TSB, containing 10% HS* for vancomycin intermediate S. aurcus/methicillin-resistant S. aureus (VISA/MRSA) strains, is inoculated from an appropriate source (frozen broth or agar slant) and grown approximately 17 hr at 35° C. with shaking at 220 rpm. Cultures are grown in tubes with a volume of 5 ml for enterococci and 2 ml for all other strains.
(§6) Four milliliter (4 ml) overnight culture is added to 36 ml physiological saline to obtain tenfold dilutions (enterococci). Overnight culture (0.4 ml) is added to 39.6 ml saline to obtain 100-fold dilutions (all strains except enterococci). Diluted cultures are maintained on ice until time of inoculation of test plates.
(§7) The number of CFU/mL is determined on BHI agar plates, although this is not done routinely because titers of overnight cultures are relatively constant. The test media include: • BHI for enterococci and VISA/MRSA; • MH II (i.e., cation-adjusted Mueller-Hinton broth) for MRS, MSS and E. coli.; • MH II+HSA for MSSA is prepared as follows: • a. 2×MHII+86mg/ml HSA • b. Dissolve 4.3 g HSA in 50 ml autoclaved 2x MH II. • c. pH to 7.0 by adding 2M MOPS, sodium. • d. Filter sterilize using 0.22 μm Coming cellulose acetate filter, used because of reported low protein binding. • e. 1×MH II+43 mg/ml HSA • f. Dilute the 2×medium twofold and filter as above. 5.8.6. Preparation of Test Plates
(§8) Using a Denley liquid handling system (or similar automatic device), 100 μ1×medium is added to each well in columns 2-12 of a 96-well microtiter dish. Using a multichannel pipettor, 100 μl 2×medium is added to each well in column 1. Plates may be filled on the day prior to assay, wrapped in plastic bags and refrigerated.
(§9) Vancomycin, Schering 29482, and teicoplanin are prepared on a weight per volume basis using 10 mM 3-(N-morpholino)propane-sulfonic acid (MOPS) buffer pH 7. Test compounds are received in solution in appropriate solvent (typically as 1 mg/ml in DMSO) or are dissolved in appropriate solvent prior to further dilution in 10 mM MOPS buffer, ph7. Consistent with NCCLS guidelines, antibiotics are handled aseptically but are not otherwise sterilized.
(§10) 100 μl appropriately diluted antibiotic solution is added to the first well of the designated row of the 96-well microtiter dish and serially diluted by twofold across the row using the Denley liquid handling system. With the aid of a Dynatech NEC 2000 inoculator, each well of the microtiter dish is inoculated with 1.5 μl diluted overnight culture, yielding approximately 1-5×10^6 CFU/ml for enterococci and approximately 3-7×10^5 CFU/ml for all other strains. Dishes are placed in stacks of no more than five, wrapped in plastic bags and incubated at 35° C. • Indication of result(s) type (% INH, IC50, Zone size, etc.) • MIC=minimum inhibitory concentration ps 5.8.9. Interpretation of the Results on the Basis of Activity […]

[5] = system: E. coli ASP #49 (envA-); assay: as above; type: cell-based; conditions: E. coli ASP #49 (envA−); MH II broth
Source text: as §2, §3, §4, §5, §6, §7, §8, §9, §10

[6] = system: MRCNS CL 3069 (S. epi.); assay: as above; type: cell-based; conditions: MRCNS CL 3069 (S. epi.); MH II broth
Source text: as §2, §3, §4, §5, §6, §7, §8, §9, §10

[7] = system: MRCNS CL 202 (S. haem.); assay: as above; type: cell-based; conditions: MRCNS CL 202 (S. haem.); MH II broth
Source text: as §2, §3, §4, §5, §6, §7, §8, §9, §10

[8] = system: MRSA MH 76; assay: as above; type: cell-based, Staphylococcus aureus; conditions: MRSA MH 76; MH II broth
Source text: as §2, §3
The glycopeptide antibiotic teicoplanin is included whenever possible. […]
The number of CFU/mL is determined on BHI agar plates, although this is not done routinely because titers of overnight cultures are relatively constant. […]

[9] = system: Staphylococcus aureus strain MB2985; assay: In vivo mouse methicillin-sensitive Staphylococcus aureus septicemia protection; set-up: species or system ICR female mice
Description: Selected compounds of the invention are tested in an in vivo mouse model. Single dose subcutaneous antibiotic protection from septicemic infections is measured as described by Gill, C. J., J. J. Jackson, L. Gerckens, B. Pelak, R. Thompson, J. Sundelof, H. Kropp and H. Rosen. Antimicrob. Agents Chemother. 42:1996-2001 (1998). Survival is monitored for seven days. ED50's and LD50's are determined by the method of Knudsen and Curtis. J. Am. Stat. Assoc. 42:282-296 (1947). Septicemia is induced in 20 gram ICR (derived from CD-I) female mice by intraperitoneal infection with Staphylococcus aureus strain MB2985. Infection is given i.p. in Brain Heart Broth (BHB) at an infectious inoculum of 1.8×10^7 cfu/mouse. Drug is administered subcutaneously immediately after the infection is initiated.

[10] = system: E. faecalis CL 4877 (VanB); assay: microbe, parasite or virus in culture; type: cell-based; set-up: CL4877 (in vitro testing): unit not given here; conditions: for CL4877 (in vitro testing): Tables 7 and 8, unit not given; for MIC, CL4877: E. faecalis CL 4877 (VanB)
In short: (§11)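 NCCLS M7-A4-based broth microdilution with twofold serial dilutions, incubated at 35° C; medium BHI for enterococci and VISA/MRSA, cation-adjusted Mueller-Hinton for E. coli. Inoculum about 1-5×10^6 CFU/ml (enterococci) or 3-7×10^5 CFU/ml (others); MIC is lowest concentration with no visible growth, read at 18-20 hr for E. coli, 22-24 hr otherwise.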

[11] = system: E. faecium CL 5242 (VanA); assay: microbe, parasite or virus in culture; type: cell-based; set-up: CL5242 (in vitro testing): unit not given here; conditions: for CL5242 (in vitro testing): Tables 7 and 8, unit not given; for MIC, CL5242: E. faecium CL 5242 (VanA)
In short: as §1

[12] = system: E. faecium CL 4931 (VanA); assay: microbe, parasite or virus in culture; type: cell-based; set-up: CL4931 (in vitro testing): unit not given here; conditions: for CL4931 (in vitro testing): Tables 7 and 8, unit not given; for MIC, CL4931: E. faecium CL 4931 (VanA)
In short: as §1

[13] = system: CL 4931, CL 5053, CL 5242 and CL 4877; type: cell-based, E. faecium, E. faecalis; set-up: unit not given here
In short: as §11

[14] = mouse septicemia, S. aureus 2985 i.p. 1.8 × 10^7 cfu/mouse, single s.c. dose at 0 hr, survival seven days
[15] = mean of CL4931, CL5053, CL5242, CL4877, unit not given
[16] = Table 9, E. faecium CL 5053 (VanA)
[17] = Table 9, mean MIC over CL4931, CL5053, CL5242, CL4877

## CNC(CC(C)C)C(=O)NC1C(=O)NC(CC(N)=O)C(=O)NC2C(=O)NC3C(=O)NC(C(=O)NC(C(=O)O)c4cc(O)cc(O)c4-c4cc3ccc4O)C(O)c3ccc(c(Cl)c3)Oc3cc2cc(c3OC2OC(CN)C(O)C(O)C2OC2CC(C)(NCc3ccc(OCc4ccc(Cl)c(Cl)c4)cc3)C(O)C(C)O2)Oc2ccc(cc2Cl)C1O (stereo not shown) [Compound 13, Glucos-6-amino-N-4-(3,4-dichlorobenzyloxy)benzyl-vancosamino-vancomycin]
[1]
  bioavailability: unexpectedly greater bioavailability
  clearance rate: faster clearance rate
  tissue distribution: more favorable tissue distribution
[2]
  MIC: 0.125 µg/mL (≈ 0.073 µM)
[3]; E. faecium CL 5053 (VanA), BHI broth
  MIC: 1 µg/mL and 2 µg/mL
[4]
  MIC: >64 µg/mL and 64 µg/mL
[5]
  MIC: 16 µg/mL and 8 µg/mL
[6]
  MIC: 0.06 µg/mL and 0.03 µg/mL
[7]
  MIC: 0.12 µg/mL and 0.06 µg/mL
[8]
  MIC: 0.25 µg/mL (≈ 0.146 µM)
[9]; S. aureus 2985, ratio of s.c. ED50 to MIC
  ED50/MIC: 3.12
[9]; [14]
  ED0 (s.c.): 0.195 mg/kg
  ED50 (s.c.): 0.390 mg/kg
  ED100 (s.c.): 0.780 mg/kg

## CNC(CC(C)C)C(=O)NC1C(=O)NC(CC(N)=O)C(=O)NC2C(=O)NC3C(=O)NC(C(=O)NC(C(=O)O)c4cc(O)cc(O)c4-c4cc3ccc4O)C(O)c3ccc(c(Cl)c3)Oc3cc2cc(c3OC2OC(CN)C(O)C(O)C2OC2CC(C)(NCC(=O)Oc3ccc(-c4ccc(Cl)c(Cl)c4)cc3)C(O)C(C)O2)Oc2ccc(cc2Cl)C1O (stereo not shown) [Compound 189]
[10]
  CL4877 (in vitro testing): 32
[11]
  CL5242 (in vitro testing): 32
[3]
  CL5053 (in vitro testing): >32
[12]
  CL4931 (in vitro testing): 32
[13]; [15]
  Mean: 32

## CNC(CC(C)C)C(=O)NC1C(=O)NC(CC(N)=O)C(=O)NC2C(=O)NC3C(=O)NC(C(=O)NC(C(=O)O)c4cc(O)cc(O)c4-c4cc3ccc4O)C(O)c3ccc(c(Cl)c3)Oc3cc2cc(c3OC2OC(CNCc3ccccc3)C(O)C(O)C2OC2CC(C)(NCc3ccc(-c4ccc(Cl)cc4)cc3)C(O)C(C)O2)Oc2ccc(cc2Cl)C1O (stereo not shown) [Compound 190]
[10]; Table 9
  MIC, CL4877: 4 µg/mL (≈ 2.3 µM)
[11]; Table 9
  MIC, CL5242: 2 µg/mL (≈ 1.15 µM)
[3]; [16]
  MIC, CL5053: 8 µg/mL (≈ 4.6 µM)
[12]; Table 9
  MIC, CL4931: 8 µg/mL (≈ 4.6 µM)
[13]; [17]
  Mean: 5.5

## C=Cc1ccccn1 [Compound 191, 2-pyridylethylene]
[10]; Table 9
  MIC, CL4877: 16 µg/mL (≈ 152 µM)
[11]; Table 9
  MIC, CL5242: 4 µg/mL (≈ 38 µM)
[3]; [16]
  MIC, CL5053: 16 µg/mL (≈ 152 µM)
[12]; Table 9
  MIC, CL4931: 16 µg/mL (≈ 152 µM)
[13]; [17]
  Mean: 13.0

## CNC(CC(C)C)C(=O)NC1C(=O)NC(CC(N)=O)C(=O)NC2C(=O)NC3C(=O)NC(C(=O)NC(C(=O)O)c4cc(O)cc(O)c4-c4cc3ccc4O)C(O)c3ccc(c(Cl)c3)Oc3cc2cc(c3OC2OC(CNCC3CCCO3)C(O)C(O)C2OC2CC(C)(NCc3ccc(-c4ccc(Cl)cc4)cc3)C(O)C(C)O2)Oc2ccc(cc2Cl)C1O (stereo not shown) [Compound 192]
[10]; Table 9
  MIC, CL4877: 16 µg/mL (≈ 9.23 µM)
[11]; Table 9
  MIC, CL5242: 4 µg/mL (≈ 2.31 µM)
[3]; [16]
  MIC, CL5053: 16 µg/mL (≈ 9.23 µM)
[12]; Table 9
  MIC, CL4931: 16 µg/mL (≈ 9.23 µM)
[13]; [17]
  Mean: 13.0

## teicoplanin [reference compound]
[10]; Table 9
  MIC, CL4877: 0.5 µg/mL
[10]; Table 10
  MIC, CL4877: 16 µg/mL
[10]
  CL4877 (in vitro testing): 0.5
[11]; Table 9
  MIC, CL5242: 256 µg/mL
[11]; Table 10
  MIC, CL5242: 256 µg/mL
[11]
  CL5242 (in vitro testing): 256
[3]; [16]
  MIC, CL5053: > 1020 µg/mL
[3]; Table 10, E. faecium CL 5053 (VanA)
  MIC, CL5053: > 1020 µg/mL
[3]
  CL5053 (in vitro testing): >1024
[12]; Table 9
  MIC, CL4931: 256 µg/mL
[12]; Table 10
  MIC, CL4931: 256 µg/mL
[12]
  CL4931 (in vitro testing): 256
[13]; [17]
  Mean: 128.1
[13]; Table 10, mean MIC over CL4931, CL5053, CL5242, CL4877
  Mean: 256.0
[13]; [15]
  Mean: 170.8
